Results from patent US9675614B2, “PRMT5 inhibitors and uses thereof” (Epizyme, Inc., priority 2012, dated 2017).

molecular target: PRMT5/MEP50 (Homo sapiens (Human), UniProt O14744); assay: PRMT5 Biochemical Assay (PRMT5/MEP50 enzyme assay on peptide substrate, 3H-SAM Flashplate); conditions: PRMT5/MEP50 biochemical assay; read-out: Biochemical IC50
Sequence (O14744 other isoform, or with tags, fused parts or gaps): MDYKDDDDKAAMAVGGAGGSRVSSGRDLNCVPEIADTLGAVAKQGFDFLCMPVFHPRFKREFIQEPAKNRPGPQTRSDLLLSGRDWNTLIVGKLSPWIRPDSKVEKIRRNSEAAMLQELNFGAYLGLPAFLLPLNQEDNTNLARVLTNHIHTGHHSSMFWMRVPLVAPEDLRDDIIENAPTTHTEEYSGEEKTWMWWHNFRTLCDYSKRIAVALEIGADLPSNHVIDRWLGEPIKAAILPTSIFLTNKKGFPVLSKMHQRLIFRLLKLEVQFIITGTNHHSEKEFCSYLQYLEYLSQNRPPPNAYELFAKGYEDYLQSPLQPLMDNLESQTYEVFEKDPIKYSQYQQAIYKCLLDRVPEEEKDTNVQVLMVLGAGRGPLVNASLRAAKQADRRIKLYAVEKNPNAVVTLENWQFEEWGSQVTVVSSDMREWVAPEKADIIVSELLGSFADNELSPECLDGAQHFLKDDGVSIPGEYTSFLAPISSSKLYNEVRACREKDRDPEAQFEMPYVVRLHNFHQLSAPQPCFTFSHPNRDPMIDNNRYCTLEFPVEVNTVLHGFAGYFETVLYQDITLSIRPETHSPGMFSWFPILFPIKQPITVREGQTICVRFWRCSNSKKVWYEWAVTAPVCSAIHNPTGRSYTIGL
Sequence (Q9BQA1 other isoform, or with tags, fused parts or gaps partner): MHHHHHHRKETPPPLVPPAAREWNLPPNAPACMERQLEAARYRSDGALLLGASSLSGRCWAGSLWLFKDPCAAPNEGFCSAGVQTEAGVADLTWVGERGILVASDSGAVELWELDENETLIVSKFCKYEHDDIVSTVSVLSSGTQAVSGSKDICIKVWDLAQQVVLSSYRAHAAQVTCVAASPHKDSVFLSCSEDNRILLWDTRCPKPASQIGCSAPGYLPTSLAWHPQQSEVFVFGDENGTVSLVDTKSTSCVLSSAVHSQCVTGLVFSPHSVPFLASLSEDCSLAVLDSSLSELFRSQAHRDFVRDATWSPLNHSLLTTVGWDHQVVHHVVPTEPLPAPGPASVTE

Compound | IC50 [µM]
O=C(NC[C@H](O)CN1CCc2ccccc2C1)c1ccnc(NC2CCN(CC(F)(F)F)CC2)c1 [Compound 224] | < 0.1
CS(=O)(=O)N1CCC(Nc2cc(C(=O)NC[C@H](O)CN3CCc4ccccc4C3)ccn2)CC1 [Compound 225] | < 0.1
O=C(NC[C@H](O)CN1CCc2ccccc2C1)c1ccnc(NC2CCN(CC(F)(F)F)C2)c1 (some centres unmarked) [Compound 226] | < 0.1
CS(=O)(=O)N1CCC(Nc2cc(C(=O)NC[C@H](O)CN3CCc4ccccc4C3)ccn2)C1 (some centres unmarked) [Compound 227] | < 0.1
CC(=O)N1CCC(Nc2cc(C(=O)NC[C@H](O)CN3CCc4ccccc4C3)ccn2)C1 (some centres unmarked) [Compound 228] | < 0.1
O=C(NC[C@H](O)CN1CCc2ccccc2C1)c1ccnc(OC2CCNCC2)c1 [Compound 229] | < 0.1
O=C(NC[C@H](O)CN1CCc2ccccc2C1)c1cc(NC2CCOC2)ncn1 (some centres unmarked) [Compound 230] | < 0.1
Cc1c(NC2CCOCC2)ncnc1C(=O)NC[C@H](O)CN1CCc2ccccc2C1 [Compound 231] | < 0.1
CN(C[C@H](O)CN1CCc2ccccc2C1)C(=O)c1cc(NC2CCOCC2)ncn1 [Compound 232] | 0.101 to 1
CNCCN(C)c1cc(C(=O)NC[C@H](O)CN2CCc3ccccc3C2)ccn1 [Compound 233] | < 0.1
CN(C)CCOc1cc(C(=O)NC[C@H](O)CN2CCc3ccccc3C2)ccn1 [Compound 234] | < 0.1
O=C(NC[C@H](O)CN1CCc2ccccc2C1)c1ccnc(NCC2CCNCC2)c1 [Compound 235] | < 0.1
O=C(NC[C@H](O)CN1CCc2ccccc2C1)c1ccnc(NCC2CCCNC2)c1 (some centres unmarked) [Compound 236] | < 0.1
O=C(NC[C@H](O)CN1CCc2ccccc2C1)c1ccnc(NCC2CCCCN2)c1 (some centres unmarked) [Compound 237] | < 0.1
O=C(NC[C@H](O)CN1CCc2ccccc2C1)c1ccnc(NCC2CNCCO2)c1 (some centres unmarked) [Compound 238] | < 0.1
CN1CCC(Nc2cccc(C(=O)NC[C@H](O)CN3CCc4ccccc4C3)c2)CC1 [Compound 239] | < 0.1
O=C(NC[C@H](O)CN1CCc2ccccc2C1)c1c[nH]c2ccccc12 [Compound 240] | 0.101 to 1
O=C(NC[C@H](O)CN1CCc2ccccc2C1)c1cccc2[nH]cnc12 [Compound 241] | < 0.1
O=C(NC[C@H](O)CN1CCc2ccccc2C1)c1n[nH]c2ccccc12 [Compound 242] | < 0.1
O=C(NC[C@H](O)CN1CCc2ccccc2C1)c1ccc2c(c1)CCO2 [Compound 243] | < 0.1
O=C(NC[C@H](O)CN1CCc2ccccc2C1)c1ccc2c(c1)OCO2 [Compound 244] | < 0.1
O=C(NC[C@H](O)CN1CCc2ccccc2C1)c1cnc2ccccc2n1 [Compound 245] | < 0.1
Cn1cc(C(=O)NC[C@H](O)CN2CCc3ccccc3C2)c2ccccc21 [Compound 246] | < 0.1
O=C(NC[C@H](O)CN1CCc2ccccc2C1)c1ccc2c(c1)CCCC2 [Compound 247] | < 0.1
O=C(NC[C@H](O)CN1CCc2ccccc2C1)c1csc2ccccc12 [Compound 248] | < 0.1
O=C(NC[C@H](O)CN1CCc2ccccc2C1)c1cccc2c1OCCO2 [Compound 249] | < 0.1
COc1ccc2oc(C(=O)NC[C@H](O)CN3CCc4ccccc4C3)cc2c1 [Compound 250] | < 0.1

Compound | IC50 [µM]
COc1ccc2cc(C(=O)NC[C@H](O)CN3CCc4ccccc4C3)ccc2c1 [Compound 251] | < 0.1
CC(=O)N(C)CCN1CCN(Cc2cccc(C(=O)NCC(O)CN3CCc4ccccc4C3)c2)CC1 (centres unmarked) [Compound 252] | < 0.1
CN1CCN(Cc2cccc(C(=O)NCC(O)CN3CCc4ccccc4C3)c2)CC1CO (centres unmarked) [Compound 253] | < 0.1
CN1CCC(Nc2cc(C(=O)NC[C@H](O)CN3CCc4ccccc4C3)ccn2)C1 (some centres unmarked) [Compound 255] | < 0.1
O=C(NC[C@H](O)CN1CCc2ccccc2C1)c1cc(OC2CCOCC2)ncn1 [Compound 256] | < 0.1
CS(=O)(=O)N1CCC(Nc2cc(C(=O)NC[C@H](O)CN3CCc4ccccc4C3)ncn2)C1 (some centres unmarked) [Compound 257] | < 0.1
O=C(NC[C@H](O)CN1CCc2ccccc2C1)c1cc(OC2CCNCC2)ncn1 [Compound 258] | < 0.1
O=C(NC[C@H](O)CN1CCc2ccccc2C1)c1cncc(NC2CCNC2)c1 (some centres unmarked) [Compound 259] | < 0.1
O=C(NC[C@H](O)CN1CCc2ccccc2C1)c1cncc(OC2CCNCC2)c1 [Compound 260] | < 0.1
CN(c1cc(C(=O)NC[C@H](O)CN2CCc3ccccc3C2)ncn1)C1CCOCC1 [Compound 261] | < 0.1
CN(CCNc1cc(C(=O)NC[C@H](O)CN2CCc3ccccc3C2)ccn1)S(C)(=O)=O [Compound 262] | < 0.1
CN(CCN(C)S(C)(=O)=O)c1cc(C(=O)NC[C@H](O)CN2CCc3ccccc3C2)ccn1 [Compound 263] | < 0.1
CN1CCCC(CNc2cc(C(=O)NC[C@H](O)CN3CCc4ccccc4C3)ccn2)C1 (some centres unmarked) [Compound 264] | < 0.1
CN1CCOC(CNc2cc(C(=O)NC[C@H](O)CN3CCc4ccccc4C3)ccn2)C1 (some centres unmarked) [Compound 265] | < 0.1
CC(=O)N1CC[C@H](Nc2cccc(C(=O)NC[C@H](O)CN3CCc4ccccc4C3)c2)C1 [Compound 266] | < 0.1
CS(=O)(=O)N1CC[C@@H](Nc2cccc(C(=O)NC[C@H](O)CN3CCc4ccccc4C3)c2)C1 [Compound 267] | < 0.1
CS(=O)(=O)N1CC[C@H](Nc2cccc(C(=O)NC[C@H](O)CN3CCc4ccccc4C3)c2)C1 [Compound 268] | < 0.1
O=C(NC[C@H](O)CN1CCc2ccccc2C1)c1cc2ccccc2[nH]1 [Compound 269] | < 0.1
O=C(NC[C@H](O)CN1CCc2ccccc2C1)c1ccc2[nH]ccc2c1 [Compound 270] | 1 to 10
O=C(NC[C@H](O)CN1CCc2ccccc2C1)c1cc2ccccc2o1 [Compound 271] | < 0.1
O=C(NC[C@H](O)CN1CCc2ccccc2C1)c1nccc2ccccc12 [Compound 272] | < 0.1
O=C(NC[C@H](O)CN1CCc2ccccc2C1)c1ccc2ncsc2c1 [Compound 273] | < 0.1
O=C(NC[C@H](O)CN1CCc2ccccc2C1)c1ccc2c(c1)OCCO2 [Compound 274] | < 0.1
Cc1cc2ncc(C(=O)NC[C@H](O)CN3CCc4ccccc4C3)c(C)n2n1 [Compound 275] | 0.101 to 1
O=C(NC[C@H](O)CN1CCc2ccccc2C1)c1cc2cccc(Cl)c2[nH]1 [Compound 276] | < 0.1
CN(CCOc1cccc(C(=O)NCC(O)CN2CCc3ccccc3C2)c1)CC(N)=O (centres unmarked) [Compound 277] | < 0.1

Further lines, results first:

IC50 [µM] | Compound
< 0.1 | CN(C)C(=O)CCCN1CCN(Cc2cccc(C(=O)NCC(O)CN3CCc4ccccc4C3)c2)CC1 (centres unmarked) [Compound 194]
< 0.1 | CN(CC(N)=O)Cc1cccc(C(=O)NCC(O)CN2CCc3ccccc3C2)c1 (centres unmarked) [Compound 195]
< 0.1 | CC(C)N1CCC(Oc2ccc(C(=O)NCC(O)CN3CCc4ccccc4C3)cc2)C1 (centres unmarked) [Compound 196]
< 0.1 | CC(=O)N1CCC(Oc2ccc(C(=O)NCC(O)CN3CCc4ccccc4C3)cc2)C1 (centres unmarked) [Compound 197]
< 0.1 | CS(=O)(=O)N1CCC(Oc2ccc(C(=O)NCC(O)CN3CCc4ccccc4C3)cc2)C1 (centres unmarked) [Compound 198]
< 0.1 | O=C(NCC(O)CN1CCc2ccccc2C1)c1ccc(OC2CCN(CC(F)(F)F)C2)cc1 (centres unmarked) [Compound 199]
< 0.1 | O=C(NC[C@H](O)CN1CCc2ccccc2C1)c1ccnc(NC2CCNCC2)c1 [Compound 200]
< 0.1 | O=C(NC[C@H](O)CN1CCc2ccccc2C1)c1ccnc(NC2CCNC2)c1 (some centres unmarked) [Compound 201]
< 0.1 | CN1CCC(Oc2cc(C(=O)NC[C@H](O)CN3CCc4ccccc4C3)ccn2)CC1 [Compound 202]
< 0.1 | O=C(NC[C@H](O)CN1CCc2ccccc2C1)c1ccnc(OC2CCN(CC(F)(F)F)CC2)c1 [Compound 203]
< 0.1 | CS(=O)(=O)N1CCC(Oc2cc(C(=O)NC[C@H](O)CN3CCc4ccccc4C3)ccn2)CC1 [Compound 204]
< 0.1 | CC(=O)N1CCC(Oc2cc(C(=O)NC[C@H](O)CN3CCc4ccccc4C3)ccn2)CC1 [Compound 205]
< 0.1 | O=C(NC[C@H](O)CN1CCc2ccccc2C1)c1cc(NC2CCNC2)ncn1 (some centres unmarked) [Compound 209]
< 0.1 | CC(=O)N1CCC(Nc2cc(C(=O)NC[C@H](O)CN3CCc4ccccc4C3)ncn2)C1 (some centres unmarked) [Compound 210]
< 0.1 | O=C(NC[C@H](O)CN1CCc2ccccc2C1)c1cncc(NC2CCOC2)c1 (some centres unmarked) [Compound 211]
< 0.1 | C[C@@H]1COCCC1Nc1cccc(C(=O)NC[C@H](O)CN2CCc3ccccc3C2)c1 (some centres unmarked) [Compound 212]
< 0.1 | C[C@H]1COCCC1Nc1cccc(C(=O)NC[C@H](O)CN2CCc3ccccc3C2)c1 (some centres unmarked) [Compound 213]
< 0.1 | CN(C)CCNc1cc(C(=O)NC[C@H](O)CN2CCc3ccccc3C2)ccn1 [Compound 214]
< 0.1 | CC(=O)N1CCC(Nc2cccc(C(=O)NC[C@H](O)CN3CCc4ccccc4C3)c2)CC1 [Compound 215]
< 0.1 | CS(=O)(=O)N1CCC(Nc2cccc(C(=O)NC[C@H](O)CN3CCc4ccccc4C3)c2)CC1 [Compound 216]
< 0.1 | O=C(NC[C@H](O)CN1CCc2ccccc2C1)c1cccc(NC2CCN(CC(F)(F)F)CC2)c1 [Compound 217]
< 0.1 | O=C(NC[C@@H](O)CN1CCc2ccccc2C1)c1ccc2ncccc2c1 [Compound 218]
< 0.1 | Cc1ccc2cc(C(=O)NC[C@@H](O)CN3CCc4ccccc4C3)ccc2n1 [Compound 219, (R)—N-(3-(3,4-dihydroisoquinolin-2(1H)-yl)-2-hydroxypropyl)-2-methylquinoline-6-carboxamide]
< 0.1 | O=C(NC[C@H](O)CN1CCc2ccccc2C1)c1ccc2ncccc2c1 [Compound 220]
< 0.1 | Cc1ccc2cc(C(=O)NC[C@H](O)CN3CCc4ccccc4C3)ccc2n1 [Compound 221, (S)—N-(3-(3,4-dihydroisoquinolin-2(1H)-yl)-2-hydroxypropyl)-2-methylquinoline-6-carboxamide]
< 0.1 | NC(=O)CNCCOc1cccc(C(=O)NCC(O)CN2CCc3ccccc3C2)c1 (centres unmarked) [Compound 222]
< 0.1 | CN1CCC(Nc2cc(C(=O)NC[C@H](O)CN3CCc4ccccc4C3)ccn2)CC1 [Compound 223]
